Here are results for two compounds from patent US11173154B2 (priority 2015, dated 2021).

Where two headings read alike, the source gives them in different places.

The test system of series [1] is Legionella pneumophila serogroup 1. As to conditions: guinea pig, in vivo.
Series [2] has as its system C57BL/6J mice. The experiment in a line: Cecal ligation puncture (CLP) model. Conditions: CPT 30 mg/kg i.v. 6 hours and twice at day 2, 60 mg/kg i.p. day 3 post-surgery.
In the next series the test system is spleen of C57BL/6J mice. Conditions: LPS+CPT, 90 minutes after LPS.
Series [3] relates to GM-CSF, IL-1β, IL-6 and TNFα in mouse serum. The experiment in a line: Serum cytokines 4 hours after LPS injection. As to conditions: mice. The format is in vivo.
The subject of series [4] is RNAPII and Top1 at transcriptional start sites. The format is cell-based. Conditions: A549, PR8ΔNS1.
Series [5] deals with C57BL/6J mice. In words: LPS-induced septic shock model. The series is classed as in vivo, mouse. As to conditions: LPS 10 mg/kg i.p., CPT 30 mg/kg 30 minutes before and one hour after LPS.

For the compound `CC[C@@]1(O)C(=O)OCc2c1cc1n(c2=O)Cc2cc3ccccc3nc2-1` [CPT, Camptothecin], the “DNA damage (H2AX staining) at the concentration used” value in the series with A549 cells (A549, 0.5 μM CPT, 100 nM TPT, 6 hours p.i.) is on record as “neither TPT- nor CPT-treated cells displayed DNA damage”. The “concentration at which DNA damage was detectable, relative to the concentration selected” value with A549 cells (A549, selected 0.5 μM CPT, 100 nM TPT) was 20 times higher. Also, in series [1], the survival rates entry is reported as “improved survival rates” and the “time to death relative to the control group” value is “delay of death”. For the same compound, the “survival following CLP” value in the series with C57BL/6J mice [2] is reported as “improved survival”. In addition, in the series with spleen of C57BL/6J mice, the “cell death in vivo (Live/Dead dye, spleen)” value is “without inducing cell death” and the “inflammatory gene transcription in vivo (spleen)” value is reported as “inhibits”. In addition, in series [3], the “pro-inflammatory genes and cytokine expression (serum titers)” value is given as “suppression”. Moreover, the “RNAPII at PAMP-induced genes” value in series [4] was “suppress”. For the same compound, the “survival in lethal endotoxic (septic) shock” value with C57BL/6J mice [5] is on record as “rescued animals from lethal endotoxic shock”.
In the case of `CC[C@@]1(O)C(=O)OCc2c1cc1n(c2=O)Cc2cc3c(CN(C)C)c(O)ccc3nc2-1` [TPT, Topotecan], the “concentration at which DNA damage was detectable, relative to the concentration selected” value in the series on A549 cells (human) turned out to be 100 times higher. Moreover, the “RNAPII at PAMP-induced genes” value in series [4] is “suppress”.
